Experimental data: patent US10640507B2, “PBD antibacterial agents” (KING'S COLLEGE LONDON, priority 2015, dated 2020)
≈ marks a conversion by molar mass, not a printed value. Read-outs that look alike come from different tables or passages of the source.

Key:
E. coli Topo IV = target: T1, E. coli Topo IV (Escherichia coli, UniProt P0AFI2+P20083); assay: Topo IV microplate assay; format: biochemical; details: agent 10-75 μM, FIG. 5
T1 construct: purchased Inspiralis (Norwich, UK) TRIV01
Procedure: (§1) The effect of the antimicrobial agents on gyrase was assessed using E. coli gyrase microplate assay kit (# TRG01) and with S. aureus gyrase microplate assay kit (# SATRG01). The effect of topoisomerase IV using was assessed using E. coli Topo IV microplate assay kit (# TRIV01) and with the S. aureus Topo IV microplate assay kit (# SATRIV01). All of these assay kits were obtained from Inspiralis (Norwich, UK). These assay kits are supplied with the relevant enzyme, substrate and buffers.
(§2) 1. Rehydrate wells with 3×200 μl Wash buffer (diluted from 20× stock with ultra-pure water).
(§3) 2. Immobilise 100 μl of 500 nM TF01 oligo in each well (5 μl of 10 μM TF01 oligo in 95 μl wash buffer).
(§4) 3. Incubate 5 minutes at room temperature.
(§5) 4. Wash off excess oligo with 3×200 μl Wash buffer.
(§6) 5. Incubate 2U (0.4 μl stock) of gyrase with 0.75 μg of relaxed pN01 in a reaction volume of 30 μl at 37° C. for 30 minutes in assay buffer—This is the part agent is added therefore the reaction volume is adjusted to account for this.
(§7) 6. Add 100 μl TF buffer (diluted from 20× stock) to well and incubate for a further 30 minutes at room temperature to allow triplex formation.
(§8) 7. Remove liquid from well and wash with 3×200 μl TF buffer to wash away unbound plasmid.
(§9) 8. Stain with DNA detection dye (diluted to ix with T10 buffer). Add 200 μl per well and incubate for 10-20 minutes at room temperature.
(§10) 9. Mix well and read in fluorescence plate reader Excitation wavelength: 495 nm; Emission wavelength: 537 nm. Use 485/520 filters in plate reader in 231.
(§11) 10. If required 10 μl of sample can be used to run on 1% agarose gel.
(§12) As the reaction volume is 30 μl make concentrations at 30× greater than required so 1 μl of the appropriate concentration can be added to the reaction. For each agent concentrations from a range of 10-75 μM.
(§13) The procedure for assessing effect of the agents on topoisomerase IV was the same as for the gyrase apart from the following changes; 1.5 U of topoisomerase IV was used in place of gyrase and supercoiled pN01 instead of relaxed pN01 was used in step 5. Results obtained were normalised using the following equation: […]
(§14) Xmin—minima among all data points
(§15) Xmax—maxima among all data points
(§16) Xi0-1—data point normalised between 0-1

S. aureus Topo IV = target: T2, S. aureus Topo IV (Staphylococcus aureus, UniProt P0C1S7+P0C1U9); assay: Topo IV microplate assay; format: biochemical; details: agent 10-75 μM, FIG. 5
T2 construct: purchased Inspiralis (Norwich, UK) SATRIV01
Procedure: as §1, §2, §3, §4, §5, §6, §7, §8, §9, §10, §11, §12, §13, §14, §15, §16

K. pneumonia NCTC 13439 = assay: General MIC protocol, Gram negative; format: cell-based; details: Klebsiella pneumoniae, NCTC13439
Procedure: (§17) General Minimum Inhibitory Concentration (MIC) Protocol
(§18) 1. Grow up cultures of bacterial strains to be tested overnight.
(§19) 2. Dilute down overnight cultures to concentration of 1×10^6 bacteria/ml (OD0.01) in Tryptic soy broth (TSB).
(§20) 3. Add 100 μl of TSB media to column 2-column 12 in 96 well plate (keeping column 1 clear).
(§21) 4. Make up compound to a concentration of 64 μg/ml in water (or alternatively to twice the chosen maximum concentration to be tested).
(§22) 5. Add 100 μl of antibiotic solution to the 1st and 2nd columns.
(§23) 6. Using a multichannel pipette take 100 μl from the 2nd column wells and pipette into 3rd column wells and repeat down the 96 well plate (remembering to include controls i.e. uninfected media and media with no antibiotic).
(§24) 7. To each well (except uninfected control row H) add 100 μl of bacterially infected media at a concentration of 1×10^6/ml.
(§25) 8. This dilutes down the concentration of the antibiotic by half (top dose is therefore 32 μg/ml in column 1) and also gives you a starting bacterial concentration of 5×10^5/ml.
(§26) 9. Wrap plate with parafilm to prevent evaporation.
(§27) 10. Leave at desired temperature (37° C. unless specified elsewhere) for 20 hours.
(§28) 11. Next day check plates for growth and measure optical density (i.e. absorbance) at a wavelength of 600 nm (OD600).
(§29) An example of such a plate is shown in FIG. 1 where column A represents wells that receive the top dose 100 μl; column B represents wells that receive the top dose 100 μl+100 μl TSB; and column C represents wells that receive 100 μl TSB. Row H which is marked by a box labelled D represents a blank where the cells receive no bacteria.

K. pneumonia MGH 78578 = assay: General MIC protocol, Gram negative; format: cell-based; details: Klebsiella pneumoniae, MGH78578
Procedure: as §17, §18, §19, §20, §21, §22, §23, §24, §25, §26, §27, §28, §29

P. aeruginosa PA01 = assay: General MIC protocol, Gram negative; format: cell-based
Procedure: as §17, §18, §19, §20, §21, §22, §23, §24, §25, §26, §27, §28, §29

E. coli gyrase = target: T3, E. coli gyrase (Escherichia coli, UniProt P0AES4+P0AES6); assay: Gyrase microplate assay; format: biochemical; details: agent 10-75 μM, FIG. 6
T3 construct: purchased Inspiralis (Norwich, UK) TRG01
Procedure: as §1, §2, §3, §4, §5, §6, §7, §8, §9, §10, §11, §12, §14, §15, §16

S. aureus gyrase = target: T4, S. aureus gyrase (Staphylococcus aureus, UniProt P0A0K8+P20831); assay: Gyrase microplate assay; format: biochemical; details: agent 10-75 μM, FIG. 6
T4 construct: purchased Inspiralis (Norwich, UK) SATRG01
Procedure: as §1, §2, §3, §4, §5, §6, §7, §8, §9, §10, §11, §12, §14, §15, §16

[1] = Pseudomonas aeruginosa, PA01, PA01

T4 sequence (P0A0K8 whole entry): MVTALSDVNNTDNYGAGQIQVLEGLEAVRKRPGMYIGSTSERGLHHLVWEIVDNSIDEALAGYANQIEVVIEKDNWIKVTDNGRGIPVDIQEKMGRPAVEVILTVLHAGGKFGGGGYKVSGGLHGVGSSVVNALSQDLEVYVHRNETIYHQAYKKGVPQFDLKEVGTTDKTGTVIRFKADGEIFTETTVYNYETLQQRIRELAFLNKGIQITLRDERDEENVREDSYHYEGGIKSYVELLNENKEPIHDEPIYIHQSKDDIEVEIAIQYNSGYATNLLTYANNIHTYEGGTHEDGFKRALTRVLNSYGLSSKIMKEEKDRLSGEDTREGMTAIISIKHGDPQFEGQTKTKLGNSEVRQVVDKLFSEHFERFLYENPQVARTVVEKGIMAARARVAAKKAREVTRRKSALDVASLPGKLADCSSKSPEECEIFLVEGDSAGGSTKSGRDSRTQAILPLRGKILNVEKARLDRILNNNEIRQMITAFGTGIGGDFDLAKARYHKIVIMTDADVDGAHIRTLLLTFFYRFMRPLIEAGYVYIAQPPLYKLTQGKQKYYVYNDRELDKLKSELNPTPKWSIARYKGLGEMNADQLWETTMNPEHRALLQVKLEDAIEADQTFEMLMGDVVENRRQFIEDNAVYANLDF
T4 sequence (P20831 whole entry): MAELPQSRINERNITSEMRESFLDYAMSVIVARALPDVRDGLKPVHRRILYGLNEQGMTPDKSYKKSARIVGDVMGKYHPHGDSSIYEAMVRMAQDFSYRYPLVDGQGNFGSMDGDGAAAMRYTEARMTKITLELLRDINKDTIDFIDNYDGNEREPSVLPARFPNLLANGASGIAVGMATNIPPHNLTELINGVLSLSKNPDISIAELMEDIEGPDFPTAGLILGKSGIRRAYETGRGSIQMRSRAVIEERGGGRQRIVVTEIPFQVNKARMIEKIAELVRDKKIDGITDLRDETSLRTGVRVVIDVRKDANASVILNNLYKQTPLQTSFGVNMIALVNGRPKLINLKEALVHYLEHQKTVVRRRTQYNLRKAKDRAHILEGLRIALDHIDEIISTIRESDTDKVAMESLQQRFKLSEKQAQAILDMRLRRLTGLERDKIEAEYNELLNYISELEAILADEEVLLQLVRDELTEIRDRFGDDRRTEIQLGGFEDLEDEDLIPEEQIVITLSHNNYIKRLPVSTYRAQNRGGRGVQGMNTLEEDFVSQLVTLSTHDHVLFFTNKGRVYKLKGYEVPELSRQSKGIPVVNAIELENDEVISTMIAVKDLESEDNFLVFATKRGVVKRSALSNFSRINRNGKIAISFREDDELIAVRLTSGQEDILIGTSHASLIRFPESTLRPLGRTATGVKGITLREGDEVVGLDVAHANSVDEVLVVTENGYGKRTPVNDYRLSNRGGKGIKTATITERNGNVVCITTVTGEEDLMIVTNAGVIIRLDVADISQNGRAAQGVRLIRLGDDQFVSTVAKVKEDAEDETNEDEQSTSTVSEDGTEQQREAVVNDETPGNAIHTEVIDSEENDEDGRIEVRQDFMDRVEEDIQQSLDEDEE
T3 sequence (P0AES4 whole entry, one chain of several): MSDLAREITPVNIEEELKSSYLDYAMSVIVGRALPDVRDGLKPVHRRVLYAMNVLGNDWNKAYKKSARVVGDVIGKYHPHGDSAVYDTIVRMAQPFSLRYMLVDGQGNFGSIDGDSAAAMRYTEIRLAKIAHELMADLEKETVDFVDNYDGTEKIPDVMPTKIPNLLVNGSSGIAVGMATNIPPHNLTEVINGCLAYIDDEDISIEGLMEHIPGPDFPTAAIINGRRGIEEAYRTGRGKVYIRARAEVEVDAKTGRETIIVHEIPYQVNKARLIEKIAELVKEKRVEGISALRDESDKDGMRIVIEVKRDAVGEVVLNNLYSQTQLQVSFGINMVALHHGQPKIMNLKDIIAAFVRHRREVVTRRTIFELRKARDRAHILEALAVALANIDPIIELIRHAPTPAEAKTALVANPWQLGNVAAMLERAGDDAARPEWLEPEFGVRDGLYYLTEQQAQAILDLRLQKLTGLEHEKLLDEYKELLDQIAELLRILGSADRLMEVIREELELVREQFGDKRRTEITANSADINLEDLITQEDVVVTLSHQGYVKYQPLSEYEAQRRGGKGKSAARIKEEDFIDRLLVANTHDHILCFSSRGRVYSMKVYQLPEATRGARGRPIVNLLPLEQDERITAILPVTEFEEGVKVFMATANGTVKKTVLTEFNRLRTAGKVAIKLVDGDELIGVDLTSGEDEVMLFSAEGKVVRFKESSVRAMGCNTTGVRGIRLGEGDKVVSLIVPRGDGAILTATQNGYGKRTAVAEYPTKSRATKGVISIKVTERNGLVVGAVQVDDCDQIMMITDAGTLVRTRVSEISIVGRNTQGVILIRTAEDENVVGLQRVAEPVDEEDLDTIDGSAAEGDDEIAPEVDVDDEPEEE
T2 sequence (P0C1U9 whole entry): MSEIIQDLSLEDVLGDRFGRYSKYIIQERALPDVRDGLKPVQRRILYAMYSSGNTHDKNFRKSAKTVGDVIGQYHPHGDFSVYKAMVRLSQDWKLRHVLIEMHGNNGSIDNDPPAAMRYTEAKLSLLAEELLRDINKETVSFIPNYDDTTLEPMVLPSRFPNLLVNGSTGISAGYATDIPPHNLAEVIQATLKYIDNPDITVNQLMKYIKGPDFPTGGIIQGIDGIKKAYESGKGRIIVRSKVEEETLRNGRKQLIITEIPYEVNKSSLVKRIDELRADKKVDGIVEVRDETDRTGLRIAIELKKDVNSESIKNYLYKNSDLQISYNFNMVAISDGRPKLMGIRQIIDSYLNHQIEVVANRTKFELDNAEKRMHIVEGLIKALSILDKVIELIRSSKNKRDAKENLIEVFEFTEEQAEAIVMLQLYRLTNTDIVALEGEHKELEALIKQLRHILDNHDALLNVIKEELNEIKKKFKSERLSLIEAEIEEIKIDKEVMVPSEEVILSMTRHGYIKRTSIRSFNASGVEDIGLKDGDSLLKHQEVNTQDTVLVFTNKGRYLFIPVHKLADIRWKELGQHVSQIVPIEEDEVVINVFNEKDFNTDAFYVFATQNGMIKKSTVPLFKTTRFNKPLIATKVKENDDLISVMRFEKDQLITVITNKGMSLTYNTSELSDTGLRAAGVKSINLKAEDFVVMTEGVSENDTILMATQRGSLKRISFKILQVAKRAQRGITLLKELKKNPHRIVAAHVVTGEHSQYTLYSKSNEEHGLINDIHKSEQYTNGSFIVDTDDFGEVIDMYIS
T2 sequence (P0C1S7 whole entry): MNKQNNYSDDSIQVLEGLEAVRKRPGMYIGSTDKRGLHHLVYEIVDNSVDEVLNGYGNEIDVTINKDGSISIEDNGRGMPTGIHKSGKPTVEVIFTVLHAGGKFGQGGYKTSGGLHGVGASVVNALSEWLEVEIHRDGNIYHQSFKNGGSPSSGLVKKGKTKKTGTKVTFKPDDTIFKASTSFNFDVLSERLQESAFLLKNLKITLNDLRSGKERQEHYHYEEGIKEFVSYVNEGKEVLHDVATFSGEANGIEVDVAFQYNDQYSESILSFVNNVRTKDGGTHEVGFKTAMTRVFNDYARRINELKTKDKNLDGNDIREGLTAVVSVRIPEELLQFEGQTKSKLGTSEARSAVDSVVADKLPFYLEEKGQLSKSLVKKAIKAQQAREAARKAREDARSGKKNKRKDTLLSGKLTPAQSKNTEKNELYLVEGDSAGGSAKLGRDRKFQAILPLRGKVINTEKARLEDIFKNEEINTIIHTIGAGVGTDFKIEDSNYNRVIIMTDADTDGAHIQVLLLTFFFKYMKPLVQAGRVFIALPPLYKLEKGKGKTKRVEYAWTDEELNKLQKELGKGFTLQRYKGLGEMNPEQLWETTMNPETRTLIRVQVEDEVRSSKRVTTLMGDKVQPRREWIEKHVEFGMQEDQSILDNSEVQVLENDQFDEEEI

| Compound | effect on topoisomerase IV (E. coli Topo IV) | effect on topoisomerase IV (S. aureus Topo IV) | MIC (K. pneumonia NCTC 13439; K. pneumonia NCTC 13439, read-out: MIC) | MIC (K. pneumonia MGH 78578; K. pneumonia MGH 78578, read-out: MIC) | MIC (P. aeruginosa PA01; Pseudomonas aeruginosa, PA01, read-out: MIC) | effect on gyrase (E. coli gyrase) | effect on gyrase (S. aureus gyrase) | MIC (K. pneumonia NCTC 13439) | MIC (K. pneumonia MGH 78578) | MIC (P. aeruginosa PA01; PA01, KMR-14-33 alone) | MIC (P. aeruginosa PA01; [1]) | MIC (P. aeruginosa PA01; PA01) |
| --- | --- | --- | --- | --- | --- | --- | --- | --- | --- | --- | --- | --- |
| O=C(O)c1cn(C2CC2)c2cc(N3CCNCC3)c(F)cc2c1=O [CIP, ciprofloxacin, reference compound] | inhibits | inhibits | 8 to 16 µg/mL (≈ 24.1 to 48.3 µM) | 1 µg/mL (≈ 3.02 µM) | 1 µg/mL (≈ 3.02 µM) | inhibits | inhibits | – | – | – | – | – |
| COc1cc2c(cc1OCCCC(=O)Nc1cc(C(=O)Nc3ccc4sc(C(=O)N(C)C)cc4c3)n(C)c1)N=C[C@@H]1CCCN1C2=O [KMR-14-33, (S)—N-(2-(dimethylcarbamoyl)benzo[b]thiophen-5-yl)-4-(4-((7-methoxy-5-oxo-2,3,5,11a-tetrahydro-1H-benzo[e]pyrrolo[1,2-a][1,4]-diazepin-8-yl)oxy)butanamido)-1-methyl-1H-pyrrole-2-carboxamide] | – | – | – | – | – | – | – | 2 µg/mL (≈ 3.05 µM) | 1 µg/mL (≈ 1.52 µM) | > 32 µg/mL | > 32 µg/mL | – |
| COc1cc2c(cc1OCCCC(=O)Nc1cc(C(=O)Nc3ccc4oc(C(=O)N5CCSCC5)cc4c3)n(C)c1)N=C[C@@H]1CCCN1C2=O [PP-A148, (S)-4-(4-((7-methoxy-5-oxo-2,3,5,11a-tetrahydro-1H-benzo-[e]pyrrolo[1,2-a][1,4]diazepin-8-yl)oxy)butanamido)-1-methyl-N-(2-(thiomorpholine-4-carbonyl)benzofuran-5-yl)-1H-pyrrole-2-carboxamide] | does not inhibit | does not inhibit | – | – | – | inhibits | inhibits | 4 to 8 µg/mL (≈ 5.72 to 11.4 µM) | 4 to 8 µg/mL (≈ 5.72 to 11.4 µM) | – | 128 µg/mL (≈ 183 µM) | >128 µg/mL |
